Test [1] concerns blood glucose levels. As to the kind of experiment: Insulin tolerance test, naltrexone and bupropion, glucose AUC (Example 8). The test is classed as in vivo, mice. To be noted: naltrexone 3 mg/kg, bupropion 50 mg/kg. The protocol: (§1) A baseline blood glucose determination was made two hours post-injection. Mice were then given a standard I.P. injection of insulin. Blood glucose levels were then followed for two hours (at 15 min, 30 min, 1 h and 2 h). […] Glucose levels are in mg/dl.
Total areas under the curve (AUC) were calculated based on glucose levels at each time point for each mouse. AUC is a summation of glucose levels observed at each time point.

The subject of test [2] is blood glucose levels. As to the kind of experiment: Blood glucose after olanzapine minipump and zonisamide injections (Example 9). The format is in vivo, Female Sprague-Dawley rats. Conditions: rats; olanzapine 1.75 mg/day by minipump, zonisamide 26 mg/kg twice daily; 13 days after olanzapine implant, 6 days after zonisamide injections began; vehicle 92.2. Here is the method: Female Sprague-Dawley rats, weighing about 235 grams at the start of the experiment were used. […] The rats were subsequently returned to their home cages after recovery. The minipumps delivered 5 μL per hour for 14 days. […] The animals were housed individually and supplied with standard laboratory chow. Food consumed and animal weights were recorded every day. […] Rats were allowed to recover after pump implantation, and then received twice daily injections of zonisamide 26 mg/kg. […] The results are shown below (Table 5).

In test [3] the test system is blood glucose levels. As to the kind of experiment: Insulin tolerance test, naltrexone and fluoxetine (Example 7). The test is classed as in vivo, Mice. Conditions: for Blood glucose, 15 min / Blood glucose, 30 min / Blood glucose, 1 h / Blood glucose, 2 h / Blood glucose, Baseline: individual mice (n=3), I.P. fluoxetine 8.5 mg/kg and/or naltrexone 2.5 mg/kg; for Blood glucose, 15 min: 15 min after I.P. insulin; for Blood glucose, 30 min: 30 min after I.P. insulin; for Blood glucose, 1 h: 1 h after I.P. insulin; for Blood glucose, 2 h: 2 h after I.P. insulin; for Blood glucose, Baseline: baseline two hours post-injection, before I.P. insulin; for Effect on insulin tolerance / insulin resistance (in words): mice, fluoxetine 8.5 mg/kg, naltrexone 2.5 mg/kg I.P., compared with vehicle or either compound alone. Here is the method: as §1

Values joined by “and” are separate entries in the source; they are usually repeats but may differ in a detail not shown here. Equal entries are not always repeated.

For `CC(NC(C)(C)C)C(=O)c1cccc(Cl)c1` (centres unmarked) [Bupropion, bupropion], in the test on blood glucose levels [1] (individual mice (n=12), summation of glucose levels at each time point), the “Total area under the curve (AUC) of glucose levels, each mouse” value is 13613 and 12038 and 9083 and 14003 and 9668 and 8003 and 8715 (2×). In the test with blood glucose levels [1], the “Decrease in AUC versus vehicle” value is reported as 4.3%. Besides, in the test on blood glucose levels [1] (vehicle mean=11136.2), the “Mean AUC as % of vehicle AUC” value stood at 95.7%.
As to `Cc1cc2c(s1)Nc1ccccc1N=C2N1CCN(C)CC1` [Olanzapine, olanzapine], in the test with blood glucose levels [2], the “Blood Glucose, Average” value stood at 120.4 mg/dL.
In the case of `NS(=O)(=O)Cc1noc2ccccc12` [Zonisamide, zonisamide], the “Blood Glucose, Average” value in the test on blood glucose levels [2] was 117.6 mg/dL.
Take `CNCCC(Oc1ccc(C(F)(F)F)cc1)c1ccccc1` (centres unmarked) [fluoxetine]: in the test with blood glucose levels [3], the “Blood glucose, 15 min” value was 63 mg/dL and 82 mg/dL and 84 mg/dL; the “Blood glucose, 30 min” value is 93 mg/dL and 90 mg/dL and 80 mg/dL; the “Blood glucose, 1 h” value was 118 mg/dL and 138 mg/dL and 89 mg/dL; the “Blood glucose, 2 h” value was 228 mg/dL and 169 mg/dL and 189 mg/dL. Also, in the test on blood glucose levels [3], the “Blood glucose, Baseline” value is 135 mg/dL and 161 mg/dL and 145 mg/dL; the “Effect on insulin tolerance / insulin resistance (in words)” value is given as “neither fluoxetine nor naltrexone alone had an effect on insulin tolerance”.
With `O=C1CC[C@@]2(O)[C@H]3Cc4ccc(O)c5c4[C@@]2(CCN3CC2CC2)[C@H]1O5` [naltrexone], in the test on blood glucose levels [3], the “Blood glucose, 15 min” value is 68 mg/dL and 62 mg/dL and 65 mg/dL; the “Blood glucose, 30 min” value was 84 mg/dL and 82 mg/dL and 81 mg/dL; the “Blood glucose, 1 h” value was 80 mg/dL and 127 mg/dL; the “Blood glucose, 2 h” value is 181 mg/dL and 175 mg/dL and 186 mg/dL. In the test on blood glucose levels [3], the “Blood glucose, Baseline” value was 137 mg/dL and 111 mg/dL and 134 mg/dL; the “Effect on insulin tolerance / insulin resistance (in words)” value is on record as “neither fluoxetine nor naltrexone alone had an effect on insulin tolerance”.

Values taken from patent US9457005B2, “Compositions and methods for increasing insulin sensitivity” (Orexigen Therapeutics, Inc., priority 2005, dated 2016).
